Assay results as given in patent publication EP4643860A1, “USE OF ECTOIN OR DERIVATIVE THEREOF IN PREVENTING AND/OR AMELIORATING CELL DAMAGE CAUSED BY IRRITANT, AND METHOD” (Bloomage Biotechnology Corporation Limited, priority 2022, dated 2024).

Assays:
[1] = Cell activity (MTT) after treatment with acetaldehyde alone; assay type: cell-based; details: human, ca9-22 cells, 1 day, T/NT
Text: The absorbance of each well at 550nm was detected by a microplate reader. […] NT was taken as 100%, and the ratio of T/NT of the sample well was taken as the cell activity, the results of which are shown in Table 3. On the basis of meeting the requirements of significant difference, the greater the cell activity %, the better the effect of inhibiting cell damage caused by acetaldehyde. Table 3 Cell activity results

CA9-22 cells [2] = assay: Cell activity (MTT) of acetaldehyde-treated cells with ectoine; assay type: cell-based
Description: Experimental sample solution: ectoine powder and 17.7 M acetaldehyde were diluted with DMEM culture medium respectively, and then the two were mixed in different ratios to prepare experimental sample solutions with different final concentrations.
The absorbance of each well at 550nm was detected by a microplate reader. […] NT was taken as 100%, and the ratio of T/NT of the sample well was taken as the cell activity. The larger the cell activity %, the better the effect of inhibiting cell damage caused by acetaldehyde. Table 4 Cell activity results

HGF-1 cells [3] = assay: ROS generation under CSE induction (DCFH-DA fluorescence); assay type: cell-based; details: 24 h pre-incubation, 5% CSE 3 h, vs control group (FIG. 1)
Description: Ectoin (purchased from Bloomage Biotechnology) was weighed and dissolved in HGF-1 cell (gingival fibroblast) complete culture medium (containing 10% FBS, 1% penicillin-streptomycin), to prepare 100 µg/mL and 500 µg/mL ectoine solutions, respectively.
(§1) Preparation of Cigarette Smoke Extract (CSE): The gas collection bottle was sterilized and the HGF-1 cell culture medium was filled into the gas collection bottle. A certain brand of cigarette was fixed on the long tube end of the gas collection bottle, and the short tube end was connected to a vacuum pump. The vacuum pump was turned on and the cigarette was lighted, so that the cigarette smoke entered the culture medium from the long tube end. In this way, cigarette smoke extract was prepared.
Test method: Preparation of a DCFH-DA solution with a final concentration of 10 µM using phenol red-free culture medium.
HGF-1 cells were seeded into a 96-well plate at a density of 30,000 cells/well and cultured at 37°C under 5% CO2 for later use. After 24 hours for cell attachment, a blank group, a control group, and an experimental group containing 100µg/mL and […] ectoine, respectively, were set up, with 100µL/well. […] The fluorescence intensity was measured at an excitation wavelength of 485nm and an emission wavelength of 538nm. […]

HGF-1 cells [4] = assay: TNF-α generation under CSE induction (ELISA); assay type: cell-based; details: 24 h pre-incubation, 5% CSE 24 h, vs control group (FIG. 2)
Description: Ectoine (purchased from Bloomage Biotechnology) was weighed separately and dissolved in HGF-1 cell complete culture medium (containing 10% FBS, 1% penicillin-streptomycin), to prepare 100 µg/mL and 500 µg/mL ectoine solutions, respectively.
as §1
Test method: HGF-1 cells were seeded into a 96-well plate at a density of 30,000 cells/well and cultured at 37°C under 5% CO2 for later use. […] The secretion of TNF-α was detected using an ELISA detection kit. At the same time as the ELISA detection, cell lysate was added to the 96-well plate and centrifugation was performed, and the supernatant was taken for BCA protein quantification. After homogenization, the control group was used as a benchmark, and the relative content of TNF-α was expressed as a percentage. […]

CA9-22 cells [5] = assay: Inflammatory factor IL-6 induced by Pg.LPS (ELISA); assay type: cell-based; details: vs Pg.LPS alone (FIG. 3)
Description: Experimental materials: Porphyromonas gingivalis lipopolysaccharide (Pg.LPS) (purchased from Sigma), ectoine (from Bloomage Biotechnology Corporation Limited), and DMEM culture medium.
Experimental sample solution: ectoine and Porphyromonas gingivalis lipopolysaccharide were diluted with DMEM culture medium to prepare an experimental sample solution containing a final concentration of 0.001 wt% ectoine + 1 µg/ml Pg.LPS.
CA9-22 cells were cultured in a 24-well plate. After complete attachment, the above experimental sample was added. After 24 hours, the cell culture supernatant was collected. The absorbance at […] and 570 nm was detected by enzyme-linked immunosorbent assay (ELISA), and the concentration of inflammatory factor IL-6 was calculated based on the absorbance.
(§2) According to the method in Example 2.1, an experimental sample solution containing a final concentration of 0.01wt% ectoine + 1µg/ml Pg.LPS was prepared, and the concentration of the inflammatory factor IL-6 was calculated. Other experimental processes not mentioned were the same as those in Example 2.1.
as §2, with “0.05wt% ectoine+1µg/ml” for “0.01wt% ectoine + 1µg/ml”
Statistical analysis: t-test statistical analysis was used to compare each group with group treated with Pg.LPS alone. * indicates p<0.05, which is considered to be of statistical difference. ** indicates p<0.01, which is considered to be of significant statistical difference, and *** indicates p<0.001, which is considered to be of extremely significant statistical difference.
Experimental materials: Porphyromonas gingivalis lipopolysaccharide (Pg.LPS) (purchased from Sigma), ACHA (from Bloomage Biotechnology Corporation Limited), and DMEM culture medium. […]

in vitro = details: human, ca9-22 cells, Cell activity
Description: (§3) Experimental sample solutions: ectoine powder was dissolved in DMEM culture medium to prepare experimental sample solutions with different final concentrations, and the concentrations were shown in Table 2.
(§4) Methods: CA9-22 cells purchased from ATCC were co-cultured with different experimental sample solutions for 1 day, then the experimental sample solution was removed and MTT was added. After 3 hours, the supernatant was carefully sucked out and dimethyl sulfoxide (DMSO) was added. The absorbance of each well at 550 nm was detected by a microplate reader. The untreated well was used as the control, the absorbance of the sample well was defined as T, and the absorbance of the untreated well was defined as NT. NT was taken as 100%, and the ratio of T/NT of the sample wells was taken as the cell activity. Table 2 Cell activity results

CA9-22 cells [6] = assay: in vitro
Description: as §3, §4

| SMILES | viability at 24 h, 100 µM ([1]; Acetaldehyde 0.0001M) | viability at 24 h, 1000 µM ([1]; Acetaldehyde 0.001M) | viability at 24 h, 5000 µM ([1]; Acetaldehyde 0.005M) | viability at 24 h, 10000 µM ([1]; Acetaldehyde 0.01M) | viability at 24 h, 20000 µM ([1]; Acetaldehyde 0.02M) | viability at 20000 µM (CA9-22 cells [2]; Homo sapiens, Ca9-22, 24 h, read-out: Cell activity) | ROS content after CSE oxidative irritation (HGF-1 cells [3]; 100µg/mL ectoine) | ROS content after CSE oxidative irritation (HGF-1 cells [3]; 200µg/mL ectoine) | TNF-α content after CSE irritation (HGF-1 cells [4]; 100µg/mL ectoine) | TNF-α content after CSE irritation (HGF-1 cells [4]; 500µg/mL ectoine) | concentration of IL-6 caused by Pg.LPS (CA9-22 cells [5]; 0.001wt% ectoine + 1 µg/ml Pg.LPS, 24 h (Example 2.1)) | concentration of IL-6 caused by Pg.LPS (CA9-22 cells [5]; 0.01wt% ectoine + 1µg/ml Pg.LPS, 24 h (Example 2.2)) | concentration of IL-6 caused by Pg.LPS (CA9-22 cells [5]; 0.05wt% ectoine + 1µg/ml Pg.LPS, 24 h (Example 2.3)) | viability at 24 h (in vitro) | cytotoxicity (CA9-22 cells [6]) | cell activity of CA9-22 after the addition of ectoine (CA9-22 cells [2]; Acetaldehyde 0.02 M + ectoine 0.02-0.1 wt%, vs acetaldehyde-treated group) |
| --- | --- | --- | --- | --- | --- | --- | --- | --- | --- | --- | --- | --- | --- | --- | --- | --- |
| CC=O [Acetaldehyde, acetaldehyde] | 96% | 93% | 93% | 89% | 70% | 70% |  |  |  |  |  |  |  |  |  |  |
| CC1=NC(C(=O)O)CCN1 (stereo not shown) [ectoine, 2-methyl-1,4,5,6-tetrahydropyrimidin-4-carboxylic acid] |  |  |  |  |  |  | can inhibit the increase of ROS content | can inhibit the increase of ROS content | can inhibit the increase of TNF-α content | can inhibit the increase of TNF-α content | can significantly reduce the concentration of IL-6 | can significantly reduce the concentration of IL-6 | can significantly reduce the concentration of IL-6 | 112% | no cytotoxicity | increased |
